Publication PMC5442318, “Hundreds of dual-stage antimalarial molecules discovered by a functional gametocyte screen” (Nature Communications, 2017)
Where two headings read alike, the source gives them in different places.

Assays:
[1] = system: P. falciparum female gametes; assay: Pf FGAA with compounds added 30 min after triggering gametocyte activation (gamete-targeting); format: cell-based, Plasmodium falciparum NF54; settings: 0h incubation time
[2] = system: P. falciparum asexual blood stages; settings: TCAMS data, cited from earlier work; for IC50: ref 1 (Gamo et al., 2010), read-out: Pf Asexual blood stages XC50; for Pf Asexual stages XC50: ref 1 (Gamo, F. J. et al., Nature 465, 305-310, 2010)
[3] = system: HepG2 cells; assay: HepG2 cytotoxicity assay; format: cell-based; settings: for Selectivity ratio: HepG2 TOX50 vs Pf FGAA IC50
Procedure, shortened: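 Post-incubation CellTiter-Glo luminescence; 30 min RT equilibration, 10 min RT stabilization before reading.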

[4] = system: P. falciparum stages IV–V gametocytes; assay: Gametocytocidal ATP-depletion assay (gametocyte ATP bioluminescence); format: cell-based, Plasmodium falciparum; settings: for inhibition at 2 µM: Plasmodium falciparum, mean
Procedure, shortened: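 Purified stage IV–V gametocytes (12,500/well) incubated with compound for 48 h at 37 °C under 3% O2/5% CO2. ATP measured by BacTiter-Glo luminescence as a viability surrogate; hits tested at 2 μM single concentration.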

[5] = system: P. falciparum stage V female gametocytes; assay: P. falciparum female gametocyte activation assay (Pf FGAA), 24 h or 48 h preincubation, Pfs25 expression readout; format: cell-based, Plasmodium falciparum NF54; design: key to Biological profile: 49 compounds that were only active with a 48 h exposure (designated as slow-acting); 29 compounds additionally showed activity with only 24 h exposure (designated as fast-acting); when the compounds were added 30 min after triggering gametocyte activation, 12 compounds prevented cell surface expression of Pfs25 (designated as gamete-targeting); settings: for Pf FGAA classification: SLOW / FAST / GAMETE from activity at 48h, 24h, 0h incubation
Procedure, shortened: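 Purified stage V gametocytes from P. falciparum NF54 gametocyte cultures were exposed to compounds for 24 h or 48 h at 37 °C under 3% O2/5% CO2, then activated by temperature drop plus xanthurenic acid. Activated females were stained with Cy3-anti-Pfs25 (0.5 μg ml^−1) for 24 h at 26 °C and counted by high-content imaging; pIC50 by nonlinear regression.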

[6] = 24h incubation time, read-out: Pf FGAA IC50 (µM) 24h
[7] = mean, read-out: Gametocytes mean Pf FGAA IC50
[8] = Plasmodium falciparum, 24h incubation time, read-out: Pf FGAA IC50 (µM) 24h

O=C(Nc1ccc(-c2ccccc2)c(OCCN2CCNCC2)c1)c1ccc(-c2ccc(Cl)cc2)cc1 [TCMDC-138818]
IC50 [1]: > 20 µM | IC50 [2]: 780 nM | Pf Asexual stages XC50 [2]: 0.84 µM | HepG2 cells mean TOX50 [3]: 4.95 µM | Gametocytes mean ATP inhibition at 2µM (%) [4]: 1.63% | IC50 [5, 6]: 1.75 µM | Pf FGAA classification [5]: FAST | IC50 [5, 7]: 1.38 µM

COc1cc2nc(-c3ccc(Br)cc3)cc(N)c2cc1OC [TCMDC-138933]
IC50 ([1]; Plasmodium falciparum): 8.17 µM | IC50 [2]: 170 nM | Pf Asexual stages XC50 [2]: 0.17 µM | Selectivity ratio [3]: 6.53 | selectivity ratio (selectivity index) ([3]; HepG2 Tox50 vs Pf FGAA IC50): < 10 | HepG2 cells mean TOX50 [3]: 4.95 µM | inhibition at 2 µM [4]: 0.89% | Biological profile ([5]; Pf FGAA with 48 h, 24 h or post-activation addition, active = IC50 below 2 μM): slow-acting | IC50 [5, 8]: 3.91 µM | IC50 ([5]; Plasmodium falciparum, stage V gametocytes, 48 h exposure, read-out: PfFGAA IC50): 0.76 µM | Pf FGAA classification [5]: SLOW

CCN1CCC2(c3cccc(OC)c3)Cc3nc4ccccc4c(-c4ccccc4)c3CC2C1 (centres unmarked) [TCMDC-138968]
IC50 [1]: > 20 µM | IC50 [2]: 350 nM | Pf Asexual stages XC50 [2]: 0.79 µM | HepG2 cells mean TOX50 [3]: 33.25 µM | Gametocytes mean ATP inhibition at 2µM (%) [4]: 21.53% | IC50 [5, 6]: > 20 µM | Pf FGAA classification [5]: SLOW | IC50 [5, 7]: 1.43 µM

CN1CCN(c2cc3c(cc2Cl)CCN3C(=O)Nc2ccc(NC(=O)c3ccc(C(F)(F)F)cc3)cc2)CC1.Cl [TCMDC-139270]
IC50 [1]: > 20 µM | IC50 [2]: 510 nM | Pf Asexual stages XC50 [2]: 1.10 µM | HepG2 cells mean TOX50 [3]: 3.99 µM | Gametocytes mean ATP inhibition at 2µM (%) [4]: 1.67% | IC50 [5, 6]: 1.54 µM | Pf FGAA classification [5]: FAST | IC50 [5, 7]: 0.69 µM

O=C(Nc1cc(Cl)c(Cl)cc1NC(=O)c1cccc(-c2ccccc2)c1O)c1cccc(-c2ccccc2)c1O [TCMDC-139548]
IC50 [1]: > 20 µM | IC50 [2]: 510 nM | Pf Asexual stages XC50 [2]: 0.51 µM | HepG2 cells mean TOX50 [3]: 3.09 µM | Gametocytes mean ATP inhibition at 2µM (%) [4]: 18.16% | IC50 [5, 6]: 2.22 µM | Pf FGAA classification [5]: FAST | IC50 [5, 7]: 1.09 µM

CC(Cc1ccc(NC(=O)c2ccc(CC(C)NCc3ccc(Cl)cc3)cc2)cc1)NCCc1cccc(Cl)c1 (centres unmarked) [TCMDC-139810]
IC50 [1]: > 20 µM | IC50 [2]: 450 nM | Pf Asexual stages XC50 [2]: 0.45 µM | HepG2 cells mean TOX50 [3]: 4.03 µM | Gametocytes mean ATP inhibition at 2µM (%) [4]: -5.12% | IC50 [5, 6]: 9.9 µM | Pf FGAA classification [5]: SLOW | IC50 [5, 7]: 0.86 µM

CCCCCCCN1CC[C@@H](CCCc2ccnc3ccc(OC)cc23)[C@@H](CNC)C1.O=C(O)C(=O)O [TCMDC-139875]
IC50 [1]: 14.4 µM | IC50 [2]: 210 nM | Pf Asexual stages XC50 [2]: 0.21 µM | HepG2 cells mean TOX50 [3]: 5.89 µM | Gametocytes mean ATP inhibition at 2µM (%) [4]: 9.45% | IC50 [5, 6]: 1.86 µM | Pf FGAA classification [5]: FAST | IC50 [5, 7]: 0.73 µM

CN(C)CCCNCc1ccc(-c2ccc(C(F)(F)F)cc2)cc1 [TCMDC-140011]
IC50 ([1]; Plasmodium falciparum): > 20 µM | IC50 [2]: 870 nM | Pf Asexual stages XC50 [2]: 0.87 µM | Selectivity ratio [3]: 2.92 | HepG2 cells mean TOX50 [3]: 4.90 µM | inhibition at 2 µM [4]: 1.03% | IC50 [5, 8]: 1.87 µM | IC50 ([5]; Plasmodium falciparum, mean, read-out: Gametocytes mean Pf FGAA IC50): 1.68 µM | Pf FGAA classification [5]: FAST

COc1cccc(CCNC(C)Cc2ccc(OCCCCOc3ccccc3)cc2)c1 (centres unmarked) [TCMDC-140020]
IC50 [1]: > 20 µM | IC50 [2]: 740 nM | Pf Asexual stages XC50 [2]: 0.74 µM | HepG2 cells mean TOX50 [3]: 1.46 µM | Gametocytes mean ATP inhibition at 2µM (%) [4]: 8.01% | IC50 [5, 6]: 3.72 µM | Pf FGAA classification [5]: SLOW | IC50 [5, 7]: 1.51 µM

Nc1ccc2[nH]cc(C3CCN(CC4CCC(NC(=O)/C=C/c5ccc(Cl)c(Cl)c5)CC4)CC3)c2n1 (centres unmarked) [TCMDC-140064]
IC50 [1]: > 20 µM | IC50 [2]: 730 nM | Pf Asexual stages XC50 [2]: 0.73 µM | HepG2 cells mean TOX50 [3]: 12.59 µM | Gametocytes mean ATP inhibition at 2µM (%) [4]: -8.60% | IC50 [5, 6]: 6.18 µM | Pf FGAA classification [5]: SLOW | IC50 [5, 7]: 0.69 µM

CC(=O)Nc1ccc2[nH]cc(C3CCN(CC4CCN(C(=O)/C=C/c5ccc(Cl)c(Cl)c5)CC4)CC3)c2n1 [TCMDC-140112]
IC50 [1]: 13.1 µM | IC50 [2]: 160 nM | Pf Asexual stages XC50 [2]: 0.16 µM | HepG2 cells mean TOX50 [3]: 12.59 µM | Gametocytes mean ATP inhibition at 2µM (%) [4]: 8.03% | IC50 [5, 6]: 14.2 µM | Pf FGAA classification [5]: SLOW | IC50 [5, 7]: 1.38 µM
